Measurements: US10597388B2, “Pyridazinone herbicides” (FMC CORPORATION, priority 2014, dated 2020)

What was measured:
Experiment in all cases: Test E greenhouse herbicide test, pre- and postemergence
Assay type in all cases: in vivo
[1] = tested on: Italian ryegrass (Lolium multiflorum)
In short: (§1)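 Pre- and postemergence sprays, same solvent–surfactant formulation. Substrate: silt loam (pre), peat-based mix (post, 1–4 leaf, 2–18 cm). Readout: visual control rating 0–100 against controls at 14–21 d.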

[2] = tested on: barnyardgrass (Echinochloa crus-galli)
In short: as §1

[3] = tested on: corn (Zea mays)
In short: as §1

[4] = tested on: crabgrass, Brazilian (Brazilian crabgrass, Digitaria horizontalis)
In short: as §1

[5] = tested on: crabgrass, large (large crabgrass, Digitaria sanguinalis); settings: Preemergence
In short: as §1

[6] = tested on: foxtail, green (green foxtail, Setaria viridis); settings: Preemergence
In short: as §1

[7] = tested on: goosegrass (Eleusine indica); settings: Preemergence
In short: as §1

[8] = tested on: johnsongrass (Sorghum halepense); settings: Preemergence
In short: as §1

[9] = tested on: kochia (Kochia scoparia)
In short: as §1

[10] = tested on: nightshade (eastern black nightshade, Solanum ptycanthum); settings: Preemergence
In short: as §1

[11] = tested on: nutsedge, yellow (yellow nutsedge, Cyperus esculentus); settings: Preemergence
In short: as §1

[12] = tested on: pigweed, palmer (palmer pigweed, Amaranthus palmeri)
In short: as §1

[13] = tested on: ragweed (common ragweed, Ambrosia elatior)
In short: as §1

[14] = tested on: sandbur (southem sandbur, Cenchrus echinatus)
In short: as §1

[15] = tested on: surinam grass (Brachiaria decumbens); settings: Preemergence
In short: as §1

[16] = tested on: velvetleaf (Abutilon theophrasti); settings: Preemergence
In short: as §1

[17] = tested on: waterhemp (common waterhemp, Amaranthus rudis)
In short: as §1

[18] = 62 g ai/ha, Postemergence, scale 0 to 100 (0 no effect, 100 complete control)
[19] = 62 g ai/ha, Preemergence, scale 0 to 100 (0 no effect, 100 complete control)
[20] = 125 g ai/ha, Postemergence, scale 0 to 100 (0 no effect, 100 complete control)
[21] = 125 g ai/ha, Preemergence, scale 0 to 100 (0 no effect, 100 complete control)
[22] = 250 g ai/ha, Postemergence, scale 0 to 100 (0 no effect, 100 complete control)
[23] = Postemergence, 31 g ai/ha, visual, scale 0 no effect to 100 complete control
[24] = Preemergence, 31 g ai/ha, scale 0 to 100, 0 no effect, 100 complete control
[25] = Preemergence, 250 g ai/ha, visual, scale 0 no effect to 100 complete control
[26] = 62 g ai/ha, scale 0 to 100 (0 no effect, 100 complete control)
[27] = 125 g ai/ha, scale 0 to 100 (0 no effect, 100 complete control)
[28] = 31 g ai/ha, scale 0 to 100, 0 no effect, 100 complete control
[29] = 250 g ai/ha, visual, scale 0 no effect to 100 complete control

## CCOC(=O)Oc1c(C)nn(C)c(=O)c1-c1c(C)sc2c(C)cc(C)cc12 [Compound 83]
[1]; [18]
  Plant response rating, Ryegrass, Italian: 60
[1]; [19]
  Plant response rating, Ryegrass, Italian: 95
[1]; [20]
  Plant response rating, Ryegrass, Italian: 80
[1]; [21]
  Plant response rating, Ryegrass, Italian: 98
[1]; [22]
  Plant response rating, Ryegrass, Italian: 85
[1]; [23]
  Plant response rating, Ryegrass, Italian: 60
[1]; [24]
  Plant response rating, Ryegrass, Italian: 80
[1]; [25]
  Plant response rating, Ryegrass, Italian: 100
[2]; [18]
  Plant response rating, Barnyardgrass: 50
[2]; [19]
  Plant response rating, Barnyardgrass: 30
[2]; [20]
  Plant response rating, Barnyardgrass: 40
[2]; [21]
  Plant response rating, Barnyardgrass: 35
[2]; [22]
  Plant response rating, Barnyardgrass: 50
[2]; [23]
  Plant response rating, Barnyardgrass: 40
[2]; [24]
  Plant response rating, Barnyardgrass: 0
[2]; [25]
  Plant response rating, Barnyardgrass: 75
[3]; [18]
  Plant response rating, Corn: 0
[3]; [19]
  Plant response rating, Corn: 0
[3]; [20]
  Plant response rating, Corn: 0
[3]; [21]
  Plant response rating, Corn: 0
[3]; [22]
  Plant response rating, Corn: 10
[3]; [23]
  Plant response rating, Corn: 0
[3]; [24]
  Plant response rating, Corn: 0
[3]; [25]
  Plant response rating, Corn: 0
[4]; [18]
  Plant response rating, Crabgrass, Brazil: 40
[4]; [19]
  Plant response rating, Crabgrass, Brazil: 10
[4]; [20]
  Plant response rating, Crabgrass, Brazil: 50
[4]; [21]
  Plant response rating, Crabgrass, Brazil: 50
[4]; [22]
  Plant response rating, Crabgrass, Brazil: 50
[4]; [23]
  Plant response rating, Crabgrass, Brazil: 30
[4]; [24]
  Plant response rating, Crabgrass, Brazil: 0
[4]; [25]
  Plant response rating, Crabgrass, Brazil: 80
[5]; [26]
  Plant response rating, Crabgrass, Large: 5
[5]; [27]
  Plant response rating, Crabgrass, Large: 40
[5]; [28]
  Plant response rating, Crabgrass, Large: 0
[5]; [29]
  Plant response rating, Crabgrass, Large: 20
[6]; [26]
  Plant response rating, Foxtail, Green: 40
[6]; [27]
  Plant response rating, Foxtail, Green: 95
[6]; [28]
  Plant response rating, Foxtail, Green: 0
[6]; [29]
  Plant response rating, Foxtail, Green: 70
[7]; [26]
  Plant response rating, Goosegrass: 0
[7]; [27]
  Plant response rating, Goosegrass: 5
[7]; [28]
  Plant response rating, Goosegrass: 0
[7]; [29]
  Plant response rating, Goosegrass: 25
[8]; [26]
  Plant response rating, Johnsongrass: 0
[8]; [27]
  Plant response rating, Johnsongrass: 0
[8]; [28]
  Plant response rating, Johnsongrass: 0
[8]; [29]
  Plant response rating, Johnsongrass: 20
[9]; [18]
  Plant response rating, Kochia: 60
[9]; [19]
  Plant response rating, Kochia: 0
[9]; [20]
  Plant response rating, Kochia: 75
[9]; [21]
  Plant response rating, Kochia: 0
[9]; [22]
  Plant response rating, Kochia: 65
[9]; [23]
  Plant response rating, Kochia: 40
[9]; [24]
  Plant response rating, Kochia: 0
[9]; [25]
  Plant response rating, Kochia: 75
[10]; [26]
  Plant response rating, Nightshade: 50
[10]; [27]
  Plant response rating, Nightshade: 100
[10]; [28]
  Plant response rating, Nightshade: 35
[10]; [29]
  Plant response rating, Nightshade: 100
[11]; [26]
  Plant response rating, Nutsedge, Yellow: 65
[11]; [27]
  Plant response rating, Nutsedge, Yellow: 70
[11]; [28]
  Plant response rating, Nutsedge, Yellow: 65
[11]; [29]
  Plant response rating, Nutsedge, Yellow: 75
[12]; [18]
  Plant response rating, Pigweed, Palmer: 40
[12]; [19]
  Plant response rating, Pigweed, Palmer: 20
[12]; [20]
  Plant response rating, Pigweed, Palmer: 50
[12]; [21]
  Plant response rating, Pigweed, Palmer: 50
[12]; [22]
  Plant response rating, Pigweed, Palmer: 60
[12]; [23]
  Plant response rating, Pigweed, Palmer: 40
[12]; [24]
  Plant response rating, Pigweed, Palmer: 0
[12]; [25]
  Plant response rating, Pigweed, Palmer: 80
[13]; [18]
  Plant response rating, Ragweed: 50
[13]; [19]
  Plant response rating, Ragweed: 75
[13]; [20]
  Plant response rating, Ragweed: 70
[13]; [21]
  Plant response rating, Ragweed: 95
[13]; [22]
  Plant response rating, Ragweed: 75
[13]; [23]
  Plant response rating, Ragweed: 60
[13]; [24]
  Plant response rating, Ragweed: 70
[13]; [25]
  Plant response rating, Ragweed: 98
[14]; [19]
  Plant response rating, Sandbur: 70
[14]; [20]
  Plant response rating, Sandbur: 65
[14]; [21]
  Plant response rating, Sandbur: 75
[14]; [22]
  Plant response rating, Sandbur: 70
[14]; [23]
  Plant response rating, Sandbur: 40
[14]; [24]
  Plant response rating, Sandbur: 20
[14]; [25]
  Plant response rating, Sandbur: 80
[15]; [26]
  Plant response rating, Surinam Grass: 60
[15]; [27]
  Plant response rating, Surinam Grass: 85
[15]; [28]
  Plant response rating, Surinam Grass: 65
[15]; [29]
  Plant response rating, Surinam Grass: 95
[16]; [26]
  Plant response rating, Velvetleaf: 35
[16]; [27]
  Plant response rating, Velvetleaf: 70
[16]; [28]
  Plant response rating, Velvetleaf: 0
[16]; [29]
  Plant response rating, Velvetleaf: 100
[17]; [19]
  Plant response rating, Waterhemp: 65
[17]; [20]
  Plant response rating, Waterhemp: 40
[17]; [21]
  Plant response rating, Waterhemp: 75
[17]; [22]
  Plant response rating, Waterhemp: 60
[17]; [23]
  Plant response rating, Waterhemp: 40
[17]; [24]
  Plant response rating, Waterhemp: 65
[17]; [25]
  Plant response rating, Waterhemp: 75
